In patent US6586422B2, “Pyrazine and triazine derivatives of 1,2,4,5-tetrahydro-Benzo or Thieno [d] azepine” (Hoffman-La Roche Inc., priority 2000, dated 2003) one finds IC50 data, which are given here for 12 compounds.

Molecules are shown by their SMILES.

In this assay the target is T1, rat mGluR1a receptor (Rattus norvegicus, UniProt P23385).
T1 construct: expressed in transfected cells; host or cells: HEK 293 cells (transient transfection; membranes used)
T1 sequence (P23385 19-1199): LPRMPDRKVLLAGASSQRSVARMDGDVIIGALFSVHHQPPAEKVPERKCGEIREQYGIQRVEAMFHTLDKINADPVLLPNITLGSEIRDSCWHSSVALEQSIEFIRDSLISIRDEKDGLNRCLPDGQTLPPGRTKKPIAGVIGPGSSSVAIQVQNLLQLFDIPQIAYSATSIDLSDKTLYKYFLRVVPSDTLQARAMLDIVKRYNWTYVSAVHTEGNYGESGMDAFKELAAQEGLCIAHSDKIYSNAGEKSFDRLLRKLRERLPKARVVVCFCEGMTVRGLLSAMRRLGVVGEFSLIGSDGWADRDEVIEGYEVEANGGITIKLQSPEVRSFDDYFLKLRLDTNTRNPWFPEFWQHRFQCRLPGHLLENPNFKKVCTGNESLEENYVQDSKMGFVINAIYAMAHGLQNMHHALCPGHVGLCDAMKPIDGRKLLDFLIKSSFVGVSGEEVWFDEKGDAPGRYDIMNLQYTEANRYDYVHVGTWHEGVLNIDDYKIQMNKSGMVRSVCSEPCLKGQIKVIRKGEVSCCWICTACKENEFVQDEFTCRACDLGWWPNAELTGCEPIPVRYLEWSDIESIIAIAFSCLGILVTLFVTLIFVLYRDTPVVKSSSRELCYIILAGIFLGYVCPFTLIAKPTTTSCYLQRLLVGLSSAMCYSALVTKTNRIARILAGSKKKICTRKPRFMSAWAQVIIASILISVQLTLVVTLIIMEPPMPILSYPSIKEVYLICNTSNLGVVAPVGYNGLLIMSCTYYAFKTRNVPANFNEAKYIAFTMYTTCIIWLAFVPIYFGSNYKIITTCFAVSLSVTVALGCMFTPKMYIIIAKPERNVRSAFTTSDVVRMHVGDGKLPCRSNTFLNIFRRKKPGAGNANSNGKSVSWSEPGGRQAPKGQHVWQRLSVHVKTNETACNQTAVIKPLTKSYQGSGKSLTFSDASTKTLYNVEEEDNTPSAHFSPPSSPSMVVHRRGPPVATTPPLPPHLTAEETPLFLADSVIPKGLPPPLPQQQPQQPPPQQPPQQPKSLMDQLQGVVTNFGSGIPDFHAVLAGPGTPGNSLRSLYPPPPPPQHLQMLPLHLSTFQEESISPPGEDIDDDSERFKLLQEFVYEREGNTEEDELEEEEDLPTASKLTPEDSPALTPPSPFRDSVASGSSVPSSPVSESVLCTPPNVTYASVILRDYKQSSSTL
The assay is described as follows: Binding assay for the characterization of mGluR 1 antagonistic properties (tritiated radioligand displacement, membranes of transfected HEK 293 cells). Conditions: membranes of HEK 293 cells transiently transfected with rat mGluR1a; radioligand 3 nM; 1 hour at room temperature; read-out: B-IC50. The method, then: Binding Assay for the Characterization of mGluR 1 Antagonistic Properties
Binding assay with tritiated 1-ethyl-2-methyl-6-oxo-4-(1,1,2-tritritio-1,2,4,5-tetrahydro-benzo[d]azepin-3-yl)-1,6-dihydro-pyrimidine-5-carbonitrile (Eur. Pat. Appl. EP 1 074 549 A2): HEK 293 cells were transiently transfected with the rat mGluR1a receptor. The cells were collected and washed 3 times with PBS. The cell pellets were frozen at −80° C. Membranes were prepared from HEK 293 cells transfected with the rat mGluR1a receptor and used in the binding experiments at 10 μg proteins per assay after resuspension in a HEPES NaOH 20 mM, pH=7.4 binding buffer. 1-Ethyl-2-methyl-6-oxo-4-(1,1,2-tritritio-1,2,4,5-tetrahydro-benzo[d]azepin-3-yl)-1,6-dihydro-pyrimidine-5-carbonitrile (S.A 33.4 Ci/mmol) was used at 3 nM final concentration. The incubation with variable concentrations of potential inhibitors was performed for 1 hour at room temperature, the incubate was then filtered onto GF/B glass fiber filter preincubated 1 hour in PEI 0,1% and washed 3 times with 1 ml of cold binding buffer. The radioactivity retained on the unifilter 96 was counted using a Topcount β counter. After correction for non specific binding the data were normalized and the IC50 value calculated using a 4 parameters logistic equation which was fitted to the inhibition curve.
For orientation: Loss of bound radioactivity is the signal in a displacement assay; it reports binding, not function.
Consider `CC(O)CNc1nnc(C#N)c(N2CCc3ccccc3CC2)n1` (racemic) [Example 6, (RS)-3-(2-Hydroxy-propylamino)-5-(1,2,4,5-tetrahydro-benzo[d]azepin-3-yl)-[1,2,4]triazine-6-carbonitrile], for which the IC50 came out at 0.027 µM.

For the compound `COCCOc1nnc(C#N)c(N2CCc3ccccc3CC2)n1` [Example 1, 3-(2-Methoxy-ethoxy)-5-(1,2,4,5-tetrahydro-benzo[d]azepin-3-yl)-[1,2,4]triazine-6-carbonitrile], the half-inhibitory concentration (IC50) was determined as 3 µM.

Turning to `N#Cc1nnc(N)nc1N1CCc2ccccc2CC1` [Example 2, 3-Amino-5-(1,2,4,5-tetrahydro-benzo[d]azepin-3-yl)-[1,2,4]triazine-6-carbonitrile], the half-maximal inhibitory concentration (IC50) was 0.027 µM.

On to `CN(C)c1nnc(C#N)c(N2CCc3ccccc3CC2)n1` [Example 3, 3-Dimethylamino-5-(1,2,4,5-tetrahydro-benzo[d]azepin-3-yl)-[1,2,4]triazine-6-carbonitrile], for which the IC50 amounted to 1.38 µM.

With `N#Cc1nnc(NCC2CC2)nc1N1CCc2ccccc2CC1` [Example 4, 3-(Cyclopropylmethyl-amino)-5-(1,2,4,5-tetrahydro-benzo[d]azepin-3-yl)-[1,2,4]triazine-6-carbonitrile], the IC50 came to 0.005 µM.

As for `N#Cc1nnc(NCCO)nc1N1CCc2ccccc2CC1` [Example 5, 3-(2-Hydroxy-ethylamino)-5-(1,2,4,5-tetrahydro-benzo[d]azepin-3-yl)-[1,2,4]triazine-6-carbonitrile], the IC50 is 0.031 µM.

Regarding `N#Cc1nnc(NN)nc1N1CCc2ccccc2CC1` [Example 7, 3-Hydrazino-5-(1,2,4,5-tetrahydro-benzo[d]azepin-3-yl)-[1,2,4]triazine-6-carbonitrile], the IC50 is 0.37 µM.

With `CC(C)(C)OC(=O)NCCNc1nnc(C#N)c(N2CCc3ccccc3CC2)n1` [Example 8, {2-[6-Cyano-5-(1,2,4,5-tetrahydro-benzo[d]azepin-3-yl)-[1,2,4]triazin-3-ylamino]-ethyl}-Carbamic Acid Tert-Butyl Ester], the IC50 turned out to be 0.027 µM.

For the compound `N#Cc1nnc(NCCc2cccnc2)nc1N1CCc2ccccc2CC1` [Example 9, 3-(2-Pyridin-3-yl-ethylamino)-5-(1,2,4,5-tetrahydro-benzo[d]azepin-3-yl)-[1,2,4]triazine-6-carbonitrile], the 50% inhibitory concentration (IC50) amounted to 0.029 µM.

As to `N#Cc1nccnc1N1CCc2ccccc2CC1` [Example 13, 3-(1,2,4,5-Tetrahydro-benzo[d]azepin-3-yl)-pyrazine-2-carbonitrile], the IC50 is 0.47 µM.

In the case of `Cc1nc(N2CCc3ccccc3CC2)c(C#N)nc1-c1ccccc1` [Example 14, 5-Methyl-6-phenyl-3-(1,2,4,5-tetrahydro-benzo[d]azepin-3-yl)-pyrazine-2-carbonitrile], the IC50 stood at 0.045 µM.

As to `N#Cc1ncc(NCCO)nc1N1CCc2ccccc2CC1` [Example 15, 5-(2-Hydroxy-ethylamino)-3-(1,2,4,5-tetrahydro-benzo[d]azepin-3-yl)-pyrazine-2-carbonitrile], the IC50 turned out to be 0.5 µM.

What is called IC50 is the point on the concentration scale where inhibition reaches its midpoint.
